# Experiments:
# [1] = tested on: laser-induced CNV; experiment: Isolectin B4 and collagen IV staining of RPE/choroidal/sclera wholemounts in laser-induced CNV model; type: in vivo, C57BL/6J mice
# Method: Mice were anaesthetized with an intraperitoneal injection of 75 mg/kg ketamine and 7.5 mg/kg xylazine. The pupils were dilated with 1% atropine and 2.5% phenylephrine (Bausch & Lomb). To induce CNV, the rupture of Bruch's membrane-choroid was achieved by laser photocoagulation using the HGM Elite 532 Green Laser (Litechnica Ltd, Middesex, UK) with the spot size of 100 μm, 250 mW power and 100 msec duration. The laser spots were placed between retinal vessels and 2 to 3 disc-diameter away from the optic disc. The formation of a bubble at the site of laser application indicates the successful rupture of Bruch's membrane. Only laser burns in which a bubble was produced were included in this study. […] Three laser burns were applied to each retina.
# Immediately after CNV induction, all mice were injected subcutaneously with 500 μl of dextran sulfate or saline. The injection was repeated once daily for 9 days post laser-CNV induction.
# On day 10 post-CNV induction, all mice were sacrificed and eyes were carefully removed. All eyes were fixed in 2% paraformaldehyde/PBS (Sigma-Aldrich, Dorset, UK) for 2 h at room temperature and then washed and stored in PBS at 4° C. RPE-choroid-sclera wholemounts were prepared using the protocol described. Briefly, the anterior segment of the eye, including the cornea, ciliary body, iris and the lens were removed. Five vertical cuts were made to the eye cup, and the retinal tissue was then carefully removed. The extra ocular tissues, including conjunctiva and ocular muscles were carefully removed from the eye-cup (containing RPE/choroid/sclera). The RPE/choroidal/sclera wholemounts were further processed for Griffonia simplicifolia lectin 1-isolectin B4 and collagen IV immunostaining.
# CNV was detected using the well-established isolectin B4 and collagen IV labelling technique. Isolectin B4 labels both infiltrating macrophages and vascular endothelial cells. Collagen IV labels the basal lamina of blood vessels. Both markers have been used widely to detect CNV.
# RPE/choroidal/sclera wholemounts were permeablized with 0.5% Triton X-100/PBS for 1 h at room temperature. The samples were then blocked with 10% BSA in 0.5% Triton X-100/PBS for 1 h and incubated with biotinylated Griffonia simplicifolia lectin 1-isolectin B4 (GSL Isolectin B4, 1:50, Vector Laboratories Ltd, UK) and collagen IV (1:50, BIO-RAD, UK) overnight at 4° C. After thorough washing in PBS (10 minutes×3), samples were incubated with streptavidin-fluorescein isothiocyanate (FITC) (1:100, Vector laboratories, UK) and goat anti rabbit AF594 (1:100, Invitrogen, UK) for two hours at room temperature. Samples were flat-mounted on glass slides with Vectashield Mounting Medium (Vector Laboratories Ltd, UK) and observed by fluorescent microscopy.
# Lecia fluorescent microscope was used to acquire images from above prepared RPE-choroidal/sclera wholemount samples. A 10× objective lens was used to allow capturing the whole area of a CNV. The imaging software ImageJ was used to analyze the images. To measure the size of CNV, the border of CNV was outlined manually and the size was automatically calculated using Image J software.
# All data (the size of CNV in each group) were expressed as mean±SEM. Student t test was used to compare the difference between the dextran sulfate group and the saline control group.
# 24 C57BL/6J mice (10˜12 weeks old) were used in this study. […]
# [2] = Body weight and activity of rats in glaucoma model; type: in vivo, Sprague Dawley rats; details: rat; day 28; treated animals gaining less weight
# Excerpt: Measured End-Points • IOP twice weekly throughout study from day 0 to day 28; • Immunohistochemistry for counting RGC that are immunoreactive for brain-specific homeobox/POU domain protein 3A (Brn3a) at day 28 (RGC survival); • Immunohistochemistry for laminin and fibronectin to evaluate scarring in the trabecular meshwork at day 28 in Groups 1 and 2; • Anterior segment and OCT imaging at day 28 to examine the angle and the thickness of the retinal nerve fiber layer comprising RGC axons; and • Body weight at day 28.
# [3] = tested on: retinal ganglion cell (RGC); experiment: Retinal ganglion cell counts by immunohistochemistry in TGF-β-induced glaucoma model; type: in vivo, Sprague Dawley rats; details: rat TGF-β glaucoma model; day 28; vs saline
# Method: Glaucoma was induced in adult male Sprague Dawley rats by repeat twice weekly intracameral (IC) injections of transforming growth factor-β (TGF-β) to increase intraocular pressure (IOP). Sustained increases in IOP (after two weeks) leads to death of retinal ganglion cells (30-40%). Dextran sulfate (Tikomed AB, Sweden, WO 2016/076780) was administered at 15 mg/kg by daily subcutaneous injection from […] to assess RGC protection compared to controls.
# Measured End-Points • IOP twice weekly throughout study from day 0 to day 28; • Immunohistochemistry for counting RGC that are immunoreactive for brain-specific homeobox/POU domain protein 3A (Brn3a) at day 28 (RGC survival); • Immunohistochemistry for laminin and fibronectin to evaluate scarring in the trabecular meshwork at day 28 in Groups 1 and 2; • Anterior segment and OCT imaging at day 28 to examine the angle and the thickness of the retinal nerve fiber layer comprising RGC axons; and • Body weight at day 28. […]
# For quantification of RGC in retinal sections, RPBMS^+/DAPI^+ RGC were counted in 15 μm thick parasagittal sections of retina from a 250 μm linear portion from the ganglion cell layer at either side of the optic nerve. Four retinal sections from each eye in the control and treatment groups were quantified. […]
# [4] = mouse laser-CNV, day 10, 0.6 mg/ml, 500 μl s.c. once daily, mean±SEM
substance,measurement,setting,value
dextran sulfate,effects on the laser-induced CNV,[1]; dose of 0.6 mg/ml per day,neither anti-angiogenic nor pro-angiogenic effects
same,difference vs saline control in lectin B4+ lesions,"[1]; mouse laser-CNV, day 10",no statistical difference
same,difference vs vehicle (saline) in collagen IV new blood vessel area,"[1]; mouse laser-CNV, day 10",no statistical significant difference
same,average isolectin B4 positive area,[1]; [4],43972±2302 μm^2
same,means of area of new blood vessels (collagen IV),[1]; [4],54681±2378 μm^2
same,body weight difference vs saline treated animals,[2],small but non-significant difference
same,decline in RGC numbers present in the retina,[3],significantly prevented
